Test results reported in ChEMBL document CHEMBL5214896, “Discovery of Selective Pituitary Adenylate Cyclase 1 Receptor (PAC1R) Antagonist Peptides Potent in a Maxadilan/PACAP38-Induced Increase in Blood Flow Pharmacodynamic Model” (J Med Chem, 2021).
Residues, ends and D or L forms follow the SMILES beside them.

Assays:
[1] = molecular target: T1, Pituitary adenylate cyclase-activating polypeptide type I receptor (Homo sapiens, UniProt P41586); assay: Antagonist activity at PAC1R in human SH-SY5Y cells assessed as inhibition of PACAP38-induced cAMP accumulation pre-incubated for 30 mins followed by agonist addition and measured after 75 mins by Eu-cAMP tracer based LANCE ultra cAMP assay; format: cell-based
[2] = molecular target: T2, Vasoactive intestinal polypeptide receptor 1 (Homo sapiens, UniProt P32241); assay: Antagonist activity at VPAC1 in human SH-SY5Y cells assessed as inhibition of PACAP38-induced cAMP accumulation pre-incubated for 30 mins followed by agonist addition and measured after 75 mins by Eu-cAMP tracer based LANCE ultra cAMP assay; format: functional, cell-based
T2 sequence (P32241 whole entry): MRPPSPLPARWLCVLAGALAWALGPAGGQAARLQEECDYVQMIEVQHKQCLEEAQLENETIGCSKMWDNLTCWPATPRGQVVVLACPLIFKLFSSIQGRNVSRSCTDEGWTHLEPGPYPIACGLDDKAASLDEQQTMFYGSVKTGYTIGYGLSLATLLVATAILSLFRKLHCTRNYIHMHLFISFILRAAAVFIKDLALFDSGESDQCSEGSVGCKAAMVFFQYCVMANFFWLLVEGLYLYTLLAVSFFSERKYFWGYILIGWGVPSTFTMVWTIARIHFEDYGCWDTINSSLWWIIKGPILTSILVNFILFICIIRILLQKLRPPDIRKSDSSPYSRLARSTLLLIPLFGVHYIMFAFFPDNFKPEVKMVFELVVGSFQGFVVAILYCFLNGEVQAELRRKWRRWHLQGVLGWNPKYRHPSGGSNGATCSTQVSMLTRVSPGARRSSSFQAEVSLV

[3] = molecular target: T3, Vasoactive intestinal polypeptide receptor 2 (Homo sapiens, UniProt P41587); assay: Antagonist activity at VPAC2 in human SH-SY5Y cells assessed as inhibition of PACAP38-induced cAMP accumulation pre-incubated for 30 mins followed by agonist addition and measured after 75 mins by Eu-cAMP tracer based LANCE ultra cAMP assay; format: functional, cell-based
T3 sequence (P41587 whole entry): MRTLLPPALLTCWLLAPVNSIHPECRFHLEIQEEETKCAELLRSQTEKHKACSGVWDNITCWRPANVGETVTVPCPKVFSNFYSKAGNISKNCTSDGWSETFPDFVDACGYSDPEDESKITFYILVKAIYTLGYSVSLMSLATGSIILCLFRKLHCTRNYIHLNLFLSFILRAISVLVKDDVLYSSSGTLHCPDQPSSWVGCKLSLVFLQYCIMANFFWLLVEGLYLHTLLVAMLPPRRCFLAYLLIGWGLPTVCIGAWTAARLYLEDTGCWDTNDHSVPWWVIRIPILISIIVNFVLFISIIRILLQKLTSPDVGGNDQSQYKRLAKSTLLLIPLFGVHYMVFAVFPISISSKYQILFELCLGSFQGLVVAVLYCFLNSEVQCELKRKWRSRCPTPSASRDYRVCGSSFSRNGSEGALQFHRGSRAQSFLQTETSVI

[4] = molecular target: T1, Pituitary adenylate cyclase-activating polypeptide type I receptor; assay: Agonist activity at PAC1R in human SH-SY5Y cells assessed as cAMP accumulation incubated for 60 mins by Eu-cAMP tracer based LANCE ultra cAMP assay; format: cell-based
Target sequence in this assay (P41586 whole entry): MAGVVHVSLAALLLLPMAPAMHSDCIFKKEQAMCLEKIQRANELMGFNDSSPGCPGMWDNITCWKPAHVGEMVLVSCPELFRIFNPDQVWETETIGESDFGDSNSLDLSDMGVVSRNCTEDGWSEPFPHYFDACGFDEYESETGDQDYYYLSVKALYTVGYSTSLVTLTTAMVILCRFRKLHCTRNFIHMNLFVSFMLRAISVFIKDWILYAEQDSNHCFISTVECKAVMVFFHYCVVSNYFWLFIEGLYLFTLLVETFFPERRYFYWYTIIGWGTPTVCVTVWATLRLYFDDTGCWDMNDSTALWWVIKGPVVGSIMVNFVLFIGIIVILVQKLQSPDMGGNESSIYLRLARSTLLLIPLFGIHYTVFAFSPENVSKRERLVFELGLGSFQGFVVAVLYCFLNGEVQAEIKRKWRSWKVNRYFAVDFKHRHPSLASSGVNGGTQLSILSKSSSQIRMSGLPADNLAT

[5] = molecular target: T2, Vasoactive intestinal polypeptide receptor 1; assay: Agonist activity at VPAC1 in human SH-SY5Y cells assessed as cAMP accumulation incubated for 60 mins by Eu-cAMP tracer based LANCE ultra cAMP assay; format: functional, cell-based
[6] = molecular target: T3, Vasoactive intestinal polypeptide receptor 2; assay: Agonist activity at VPAC2 in human SH-SY5Y cells assessed as cAMP accumulation incubated for 60 mins by Eu-cAMP tracer based LANCE ultra cAMP assay; format: functional, cell-based
[7] = system: Rattus norvegicus; assay: In vivo Antagonist activity at Maxadilan-induced Sprague-Dawley rat assessed as reduction in Maxadilan-induced blood flow at 0.3 mg/kg,sc measured after 45 mins; format: functional; set-up: scale not given: the % may be the effect or the level left; settings: 0.75 h
[8] = molecular target: T4, Pituitary adenylate cyclase-activating polypeptide type I receptor (Rattus norvegicus) (UniProt P32215); assay: Antagonist activity at PAC1R in rat RG2 cells assessed as inhibition of PACAP38-induced cAMP accumulation pre-incubated for 30 mins followed by agonist addition and measured after 75 mins by Eu-cAMP tracer based LANCE ultra cAMP assay; format: cell-based; settings: filed as antagonist, time 105.0 min
T4 sequence (whole entry): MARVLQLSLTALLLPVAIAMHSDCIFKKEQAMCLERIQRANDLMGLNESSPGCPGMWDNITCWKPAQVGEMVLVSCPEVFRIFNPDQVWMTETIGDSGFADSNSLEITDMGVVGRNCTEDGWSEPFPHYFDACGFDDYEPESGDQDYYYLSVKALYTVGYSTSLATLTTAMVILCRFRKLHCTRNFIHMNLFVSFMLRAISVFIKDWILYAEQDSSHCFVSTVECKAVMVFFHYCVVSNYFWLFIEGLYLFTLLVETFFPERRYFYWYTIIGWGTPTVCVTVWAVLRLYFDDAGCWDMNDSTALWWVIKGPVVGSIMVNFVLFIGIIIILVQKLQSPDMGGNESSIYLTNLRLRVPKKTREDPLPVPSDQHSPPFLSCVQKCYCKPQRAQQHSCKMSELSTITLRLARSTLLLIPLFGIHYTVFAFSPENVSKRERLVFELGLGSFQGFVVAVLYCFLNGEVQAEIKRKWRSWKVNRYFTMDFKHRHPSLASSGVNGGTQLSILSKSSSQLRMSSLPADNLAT

[9] = molecular target: T1, Pituitary adenylate cyclase-activating polypeptide type I receptor; assay: Antagonist activity at PAC1R in human SH-SY5Y cells assessed as inhibition of Maxadilan-induced cAMP accumulation pre-incubated for 30 mins followed by agonist addition and measured after 75 mins by Eu-cAMP tracer based LANCE ultra cAMP assay; format: cell-based; settings: filed as antagonist, time 105.0 min
Target sequence in this assay (P41586 21-468 limits assumed): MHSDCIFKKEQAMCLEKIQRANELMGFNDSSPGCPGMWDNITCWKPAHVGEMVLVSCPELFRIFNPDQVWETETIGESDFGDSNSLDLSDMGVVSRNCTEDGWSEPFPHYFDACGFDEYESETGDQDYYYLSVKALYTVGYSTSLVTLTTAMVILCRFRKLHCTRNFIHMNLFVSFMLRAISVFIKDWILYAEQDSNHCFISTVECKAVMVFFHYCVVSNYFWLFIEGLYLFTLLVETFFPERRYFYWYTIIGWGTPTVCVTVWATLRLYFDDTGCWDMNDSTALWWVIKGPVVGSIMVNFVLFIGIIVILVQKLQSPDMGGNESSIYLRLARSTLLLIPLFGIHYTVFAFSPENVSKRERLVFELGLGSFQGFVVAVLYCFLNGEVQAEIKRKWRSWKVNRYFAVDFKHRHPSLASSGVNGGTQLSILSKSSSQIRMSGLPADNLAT

[10] = molecular target: T4, Pituitary adenylate cyclase-activating polypeptide type I receptor (Rattus norvegicus); assay: Antagonist activity at PAC1R in rat RG2 cells assessed as inhibition of Maxadilan-induced cAMP accumulation pre-incubated for 30 mins followed by agonist addition and measured after 75 mins by Eu-cAMP tracer based LANCE ultra cAMP assay; format: cell-based; settings: filed as antagonist, time 105.0 min
[11] = Half life in Sprague-Dawley rat at 2 mg/kg,iv measured upto 6 hrs by LC-MS analysis; format: ADME, organism-based; settings: in vivo
[12] = Cmax in Sprague-Dawley rat at 2 mg/kg,iv measured upto 6 hrs by LC-MS analysis; format: ADME, organism-based; set-up: time < 6 hrs, dose 2 mg/kg, route iv; settings: in vivo
[13] = AUC (0-infinity) in Sprague-Dawley rat at 2 mg/kg,iv measured upto 6 hrs by LC-MS analysis; format: ADME, organism-based; set-up: dose 2 mg/kg, time < 6 hrs, route iv; settings: in vivo
[14] = Clearance in Sprague-Dawley rat at 2 mg/kg,iv measured upto 6 hrs by LC-MS analysis; format: ADME, organism-based; settings: in vivo
[15] = Volume of distribution at steady state in Sprague-Dawley rat at 2 mg/kg,iv measured upto 6 hrs by LC-MS analysis; format: ADME, organism-based; settings: in vivo, read-out: Vdss
[16] = Half life in Sprague-Dawley rat at 10 mg/kg,sc measured upto 6 hrs by LC-MS analysis; format: ADME, organism-based; settings: in vivo
[17] = Cmax in Sprague-Dawley rat at 10 mg/kg,sc measured upto 6 hrs by LC-MS analysis; format: ADME, organism-based; set-up: dose 10 mg/kg, time < 6 hrs, route sc; settings: in vivo
[18] = AUC (0-infinity) in Sprague-Dawley rat at 10 mg/kg,sc measured upto 6 hrs by LC-MS analysis; format: ADME, organism-based; set-up: dose 10 mg/kg, time < 6 hrs, route sc; settings: in vivo
[19] = Tmax in Sprague-Dawley rat at 10 mg/kg,sc measured upto 6 hrs by LC-MS analysis; format: ADME, organism-based; settings: in vivo
[20] = Bioavailability in Sprague-Dawley rat at 10 mg/kg,sc measured upto 6 hrs by LC-MS analysis; format: ADME, organism-based; settings: in vivo

Compound: CSCC[C@H](NC(=O)[C@H](CCC(N)=O)NC(=O)[C@H](CCCCN)NC(=O)[C@H](CCCNC(=N)N)NC(=O)[C@H](Cc1ccc(O)cc1)NC(=O)[C@H](CCCNC(=N)N)NC(=O)[C@H](CO)NC(=O)[C@H](Cc1ccc(O)cc1)NC(=O)[C@H](CO)NC(=O)[C@H](CC(=O)O)NC(=O)[C@@H](NC(=O)[C@@H](N)Cc1ccccc1)[C@@H](C)O)C(=O)N[C@@H](C)C(=O)N[C@H](C(=O)N[C@@H](CCCCN)C(=O)N[C@@H](CCCCN)C(=O)N[C@@H](Cc1ccc(O)cc1)C(=O)N[C@@H](CC(C)C)C(=O)N[C@@H](C)C(=O)N[C@@H](C)C(=O)N[C@H](C(=O)N[C@@H](CC(C)C)C(=O)NCC(=O)N[C@@H](CCCCN)C(=O)N[C@@H](CCCNC(=N)N)C(=O)N[C@@H](Cc1ccc(O)cc1)C(=O)N[C@@H](CCCCN)C(=O)N[C@@H](CCC(N)=O)C(=O)N[C@@H](CCCNC(=N)N)C(=O)N[C@H](C(=O)N[C@@H](CCCCN)C(=O)N[C@@H](CC(N)=O)C(=O)N[C@@H](CCCCN)C(N)=O)C(C)C)C(C)C)C(C)C
- IC50 [1]: 3.5 nM
- IC50 [2]: 118 nM
- IC50 [3]: 4.5 nM

Compound: CC[C@H](C)[C@H](NC(=O)CNC(=O)[C@H](CC(=O)O)NC(=O)[C@H](CO)NC(=O)[C@@H](N)Cc1cnc[nH]1)C(=O)N[C@@H](Cc1ccccc1)C(=O)N[C@H](C(=O)N[C@@H](CC(=O)O)C(=O)N[C@@H](CO)C(=O)N[C@@H](Cc1ccc(O)cc1)C(=O)N[C@@H](CO)C(=O)N[C@@H](CCCNC(=N)N)C(=O)N[C@@H](Cc1ccc(O)cc1)C(=O)N[C@@H](CCCNC(=N)N)C(=O)N[C@@H](CCCCN)C(=O)N[C@@H](CCC(N)=O)C(=O)N[C@@H](CCSC)C(=O)N[C@@H](C)C(=O)N[C@H](C(=O)N[C@@H](CCCCN)C(=O)N[C@@H](CCCCN)C(=O)N[C@@H](Cc1ccc(O)cc1)C(=O)N[C@@H](CC(C)C)C(=O)N[C@@H](C)C(=O)N[C@@H](C)C(=O)N[C@H](C(=O)N[C@@H](CC(C)C)C(=O)NCC(=O)N[C@@H](CCCCN)C(=O)N[C@@H](CCCNC(=N)N)C(=O)N[C@@H](CCCCN)C(=O)N[C@@H](Cc1ccc(O)cc1)C(=O)N[C@@H](CCCCN)C(=O)N[C@@H](CCC(N)=O)C(=O)N[C@@H](CCCNC(=N)N)C(=O)N[C@H](C(=O)N[C@@H](CCCCN)C(=O)N[C@@H](CC(N)=O)C(=O)N[C@@H](CCCCN)C(N)=O)C(C)C)C(C)C)C(C)C)[C@@H](C)O
- EC50 [4]: 0.03 nM
- EC50 [5]: 0.03 nM
- EC50 [6]: 0.06 nM

Compound: CC[C@H](C)[C@H](NC(=O)[C@H](C)NC(=O)[C@H](CCCCN)NC(=O)[C@H](CCCNC(=N)N)NC(=O)[C@H](Cc1ccccc1)NC(=O)[C@H](CCC(N)=O)NC(=O)[C@@H]1CSSC[C@H](N)CC(=O)N[C@@H](CC(=O)O)C(=O)N[C@@H](C)C(=O)N[C@@H]([C@@H](C)O)C(=O)N1)C(=O)N[C@@H](CC(=O)O)C(=O)N[C@@H](CC(=O)O)C(=O)N[C@H]1CSSC[C@@H](C(=O)N[C@@H](CCSC)C(=O)N[C@@H](CCCCN)C(=O)N[C@@H](CCC(N)=O)C(=O)N[C@@H](CCCCN)C(=O)N[C@@H](CCCCN)C(=O)N[C@@H](CCCCN)C(=O)N[C@@H](CCC(=O)O)C(=O)N[C@@H](Cc2c[nH]c3ccccc23)C(=O)N[C@@H](CCCCN)C(=O)N[C@@H](C)C(=O)NCC(N)=O)NC(=O)[C@H](C)NC(=O)[C@H](CCCCN)NC(=O)[C@H](Cc2ccccc2)NC(=O)[C@H](C(C)C)NC(=O)[C@H](CO)NC(=O)[C@H](CO)NC(=O)[C@H](Cc2cnc[nH]2)NC(=O)[C@H](Cc2ccc(O)cc2)NC(=O)[C@H](C)NC(=O)[C@H](CCC(N)=O)NC(=O)[C@H](CCCNC(=N)N)NC(=O)[C@H](C)NC1=O (HELM PEPTIDE1{[N[C@@H](CS[*:3])CC(=O)[*:2]].D.A.T.C.Q.F.R.K.A.I.D.D.C.A.R.Q.A.Y.H.S.S.V.F.K.A.C.M.K.Q.K.K.K.E.W.K.A.G.[am]}$PEPTIDE1,PEPTIDE1,1:R3-5:R3|PEPTIDE1,PEPTIDE1,14:R3-27:R3$$$V2.0)
- Activity [7]: 110%
- IC90 ([1]; filed as antagonist, time 105.0 min): 0.42 nM
- IC90 [8]: 0.17 nM
- IC90 [9]: 0.12 nM
- IC90 [10]: 0.14 nM
- half-life [11]: 58.1 min
- Cmax [12]: 4170 nM
- AUC(0-inf) [13]: 1.16 µM·h
- clearance [14]: 6.55 mL/min/kg
- Vd [15]: 0.217 L/kg
- half-life [16]: 41.3 min
- Cmax [17]: 1110 nM
- AUC(0-inf) [18]: 1.65 µM·h
- Tmax [19]: 15 min
- bioavailability [20]: 28%
